Read-outs that look alike come from different tables or passages of the source.
Legend:
[1] = Pharmacokinetic results of the drugs in SD rats; type: in vivo; settings: for clearance: read-out: Cl s, spp
Text: III. Pharmacokinetic Results of the Drugs in SD Rats

RPMI8226 cells = assay: Cytotoxicity experiment (Cell-Titer, 72 h) in RPMI8226 cells; type: cell-based; settings: for IC50: Homo sapiens, RPMI-8226, 72 h, Cell-Titer
Procedure: 4. Cytotoxicity Experiment
• (1) RPMI8226 cells in the logarithmic growth phase were added to a 384-well plate at 1000 cells/well in a volume of 18 μL/well and incubated at 37° C., 5% CO2 for 24 h. • (2) The test compound at a stock concentration of 10 mM was diluted 10-fold with DMSO and then 100-fold with a serum-free 1640 medium to give a dilution at a working concentration of 10 μM containing 1% DMSO. 10 concentrations were then obtained by 2-fold serial dilution using a serum-free 1640 medium containing 1% DMSO, with the tenth concentration point being a solvent control group (no drug). The diluted compound was added into the plated cell plate at 2 μL/well to give final compound concentrations from 1000 nM (2-fold gradient dilution, 10 concentration gradients), and 4 replicates were set for each concentration. 1% DMSO was used as a solvent control and KPT-8602 as a positive control. • (3) The cells were incubated at 37° C. for 72 h, and 10 μL of Cell-Titer assay reagent was added to each well, followed by incubation in a cell incubator for 10 min. • (4) The mixture was well mixed by shaking and then assayed by the Cell-Titer program running on a microplate reader. The inhibition % and IC50 values (μM) were calculated using GraphPad Prism 5.

[2] = In vivo toxicity assay in BALB/C mice (21 days, intragastric, once daily)
Procedure: IV. In Vivo Toxicity Assay of Candidate Compounds in BALB/C
25 BALB/C mice were randomly divided into the following 5 groups: solvent control group (Control), positive control KPT-8602 (30 mg/kg, once daily) group, KPT-8602 (60 mg/kg, once daily) group, compound I (30 mg/kg, once daily) group, and compound I (60 mg/kg, once daily) group, with 5 mice in each group. Each group was intragastrically given a test compound at a corresponding concentration at a dose of 3 mL/kg. KPT-8602 and compound I were administered daily for 21 consecutive days.

[3] = rat, in vivo, po (10 mg/kg), read-out: AUC0-inf
[4] = 30 mg/kg once daily, intragastric, 21 days

Compound: NC(=O)/C(=C/n1cnc(-c2cc(C(F)(F)F)cc(C(F)(F)F)c2)n1)c1cncnc1 [KPT-8602, reference compound]
- AUC0-inf ([1]; iv (2 mg/kg), in ng·h/mL): 998
- AUC0-t ([1]; iv (2 mg/kg), in ng·h/mL): 963
- Cl s, spp ([1]; po (10 mg/kg)): 4.04 L/h/kg
- AUC0-t ([1]; po (10 mg/kg), in ng·h/mL): 2541
- MRT ([1]; rat, in vivo, iv (2 mg/kg)): 2.48 h
- half-life ([1]; rat, in vivo, iv (2 mg/kg)): 3.04 h
- clearance ([1]; rat, in vivo, iv (2 mg/kg)): 2.06 L/h/kg
- MRT ([1]; rat, in vivo, po (10 mg/kg)): 3.85 h
- Tmax ([1]; rat, in vivo, po (10 mg/kg)): 1 h
- bioavailability ([1]; rat, in vivo, po (10 mg/kg)): 52%
- half-life ([1]; rat, in vivo, po (10 mg/kg)): 2.69 h
- AUC0-inf [1, 3]: 2.6 µg·h/mL
- Cmax ([1]; rat, in vivo, po (10 mg/kg), read-out: Cmax): 0.72 µg/mL
- IC50 (RPMI8226 cells): 0.34 µM
- body weight change [2, 4]: significant decrease in body weight
- mortality by day 10 ([2]; 60 mg/kg once daily, intragastric): all died
- mice died on day 7 ([2]; 60 mg/kg once daily, intragastric, 5 mice per group): two

Compound: CCONC(=O)/C(=C/n1cnc(-c2cc(C(F)(F)F)cc(C(F)(F)F)c2)n1)c1cncnc1 [IV, (E)-3-(3-(3,5-Bis(trifluorometh-yl)phenyl)-1H-1,2,4-triazol-1-yl)-N-ethoxy-2-(pyrimi-din-5-yl)acrylamide]
- cellular activity compared with KPT-8602 (RPMI8226 cells): substantially equivalent to KPT-8602
- IC50 (RPMI8226 cells): 0.54 µM

Compound: CONC(=O)/C(=C/n1cnc(-c2cc(C(F)(F)F)cc(C(F)(F)F)c2)n1)c1cncnc1 [Compound I, (E)-3-(3-(3,5-Bis(trifluorometh-yl)phenyl)-1H-1,2,4-triazol-1-yl)-N-methoxy-2-(pyri-midin-5-yl)acrylamide]
- AUC0-inf ([1]; iv (2 mg/kg), in ng·h/mL): 1493
- AUC0-t ([1]; iv (2 mg/kg), in ng·h/mL): 1301
- intravenous and oral AUCs compared with KPT-8602 ([1]; iv and po): much higher than those of KPT-8602
- oral and intravenous half-lives compared with KPT-8602 ([1]; iv and po): longer than those of KPT-8602
- oral half-life compared with KPT-8602 ([1]; po): about 2 times
- Cl s, spp ([1]; po (10 mg/kg)): 2.63 L/h/kg
- Cmax ([1]; po (10 mg/kg)): 0.899 µg/mL
- MRT ([1]; rat, in vivo, iv (2 mg/kg)): 2.49 h
- half-life ([1]; rat, in vivo, iv (2 mg/kg)): 4.23 h
- clearance ([1]; rat, in vivo, iv (2 mg/kg)): 1.45 L/h/kg
- MRT ([1]; rat, in vivo, po (10 mg/kg)): 7.65 h
- Tmax ([1]; rat, in vivo, po (10 mg/kg)): 0.25 h
- bioavailability ([1]; rat, in vivo, po (10 mg/kg)): 55.9%
- half-life ([1]; rat, in vivo, po (10 mg/kg)): 5.59 h
- AUC0-inf [1, 3]: 3.89 µg·h/mL
- AUC0-t ([1]; rat, in vivo, po (10 mg/kg), read-out: AUC0-t): 3.21 µg·h/mL
- cellular activity compared with KPT-8602 (RPMI8226 cells): substantially equivalent to KPT-8602
- IC50 (RPMI8226 cells): 0.37 µM
- body weight change [2, 4]: body weights comparable to the blank
- body weight change ([2]; 60 mg/kg once daily, intragastric, 21 days): body weights comparable to the blank
- safety (overall conclusion) ([2]; 30 and 60 mg/kg once daily, 21 days): good safety

Compound: CO/C(=N\C(C)(C)C)NC(=O)/C(=C/n1cnc(-c2cc(C(F)(F)F)cc(C(F)(F)F)c2)n1)c1cncnc1 [III, Methyl(Z)-N-((E)-3-(3-(3,5-bis(trifluoromethyl)phenyl)-1H-1,2,4-triazol-1-yl)-2-(py-rimidin-5-yl)acryloyl)-N′-(tert-butyl)carbamate]
- IC50 (RPMI8226 cells): 7.1 µM

Compound: O=C(NO)/C(=C/n1cnc(-c2cc(C(F)(F)F)cc(C(F)(F)F)c2)n1)c1cncnc1 [II, (E)-3-(3-(3,5-Bis(trifluorometh-yl)phenyl)-1H-1,2,4-triazol-1-yl)-N-hydroxy-2-(pyri-midin-5-yl)acrylamide]
- IC50 (RPMI8226 cells): 6.9 µM
